The record followed here is article PMC8110684, “Effects of Bacillus subtilis iturin A on HepG2 cells in vitro and vivo” (AMB Express, 2021).

The test system of data set [1] is HepG2 cells. The experiment in a line: Capability to enter cells (CFNSE label, fluorescence microscopy). To be noted: dissolved in cell culture medium, incubated with HepG2 for 10 min, fluorescence microscope.
Description: (§1) The purified CFNSE-iturin A was dissolved in cell culture medium and incubated with HepG2 cells for 10 min, and then observed under a fluorescence microscope and photographed. The control group was cells incubated with CFNSE for the same time.
Data set [2] relates to HepG2 cells.
Description: as §1
Data set [3] can be described thus: Effect of treatment on mice health (weight, serum biochemistry, necropsy, histopathology). Format: in vivo, BALB/c nude mice. To be noted: 3 mg/kg per day. The protocol:
During the 15-day trial, the weight and food intake of mice were recorded daily.
At euthanasia, blood was collected after the animals had been fasted overnight. Blood samples were collected from both control and test groups via cardiac puncture under ketamine anesthesia. All blood samples were then subjected to clinical analysis of aspartate aminotransferase (AST), alanine aminotransferase (ALT), and creatinine (SCr).
Mice were examined for gross lesions. Tissues and organs of interest were retained. The liver, kidneys, and spleen of all mice were weighed soon after dissection and then preserved in 4% paraformaldehyde for histopathological examination (Turki et al. [2010]). Histopathological assessments were performed to evaluate viscera retained from both control and treated animals. Viscera of interest were trimmed, processed, embedded in paraffin, sectioned, and stained with H&E before their microscopic examination.

Like-named read-outs stand apart in the source and are kept apart here. Where a SMILES comes first, the peptide text is derived from it.

On to “5(6)-Carboxy fluorescein N-succinimidyl ester [CFNSE]”, for which, in the data set on HepG2 cells [1], the “entry into HepG2 cells (cell fluorescence)” value is on record as “could not enter the cells”.

On to `CCCCCCCCCCCC1CC(=O)N[C@@H](CC(N)=O)C(=O)N[C@H](Cc2ccc(O)cc2)C(=O)N[C@H](CC(N)=O)C(=O)N[C@@H](CCC(N)=O)C(=O)N2CCC[C@H]2C(=O)N[C@H](CC(N)=O)C(=O)N[C@@H](CO)C(=O)N1` (stereo partly shown) [iturin A] (HELM PEPTIDE1{N.[dY].[dN].Q.P.[dN].S.[CCCCCCCCCCCC(CC(=O)[*:2])N[*:1]]}$PEPTIDE1,PEPTIDE1,1:R1-8:R2$$$V2.0), for which, in the data set on HepG2 cells [2], the “entry into HepG2 cells (cell fluorescence)” value is recorded as “could enter HepG2 cells within very short time”. In data set [3] (15 days), the “kidney histopathology (H&E)” value is “no necrotic cells or cell swelling was found”; the “liver histopathology (H&E)” value is listed as “no hepatocyte swelling, necrosis, inflammatory cell infiltration, or other phenomena were observed”; the “spleen histopathology (H&E)” value is “orderly arrangement of cells without necrosis”. In addition, in data set [3] (15 days, n = 6), the “body weight versus control group” value is given as “no significant difference”; the “weight and viscera indexes of liver, spleen and kidney versus control” value is “No significant differences”. In addition, in data set [3] (end of administration, n = 6), the “serum ALT versus control” value is recorded as “increased significantly”, the “serum AST versus control” value is given as “increased significantly” and the “serum creatinine (SCr) versus control” value is reported as “no significant difference”.
